Experiments:
ALK = molecular target: T1, ALK (Homo sapiens, UniProt Q96SW2+Q9HC35+Q9UM73); experiment: Western blot degradation of ALK (H2228 Cell); assay type: cell-based; conditions: Table D5
T1 construct: evaluate the effects of the compounds of the present disclosure on the expression of target proteins in cells; endogenous in cells; host or cells: H2228
Method: Conventional Western blot assay was performed to evaluate the effects of the compounds of the present disclosure on the expression of target proteins in cells.
(1) Cell Seeding and Protein Harvesting: The selected cells were processed according to the cell seeding procedure and protein harvesting procedure in Table III-2. Table III-2 Cell Seeding and Protein Harvesting Procedures
(2) To the collected supernatant, 5X SDS sample loading buffer was added, followed by denaturation at 95°C for 5 minutes. The denatured samples were then separated by SDS-PAGE electrophoresis on a polyacrylamide gel. Proteins were transferred to a nitrocellulose membrane (0.45 µm NC membrane), blocked with blocking buffer at room temperature for 1 hour, and subjected to antibody incubation and development procedures according to the antibody manufacturer's instructions (Cell Signaling Technology).
Half-Maximal Degradation Concentration value (the drug concentration required for degrading proteins by 50%, abbreviated as DC50) reads method: comparing the grayscale values of Western blot bands from drug-treated samples with those from blank DMSO-treated controls, and identifying the drug concentration range at which the grayscale value is half that of the DMSO-treated control bands.
DC50 values can be calculated using ImageJ software to measure grayscale values of Western blot bands from drug-treated samples. The concentration-response curve is fitted to estimate the drug concentration corresponding to half the grayscale value.
Target protein remaining (%) refers to the percentage of target protein remaining in hPBMC cells after treatment with protein degrader compounds.
Calculation method for target protein remaining (%): Use ImageJ software to measure grayscale values of Western blot bands from drug (protein degrader)-treated samples. The grayscale value of drug-treated bands is divided by that of internal control protein bands, and the resulting quotient is normalized to obtain the relative percentage of remaining target protein after protein degrader treatment.
Target protein degradation rate (%) = 100% - target protein remaining (%).

MM.1S = experiment: CCK-8 proliferation, MM.1S; assay type: cell-based; conditions: Homo sapiens, MM1.S; Table B10, compounds designed based on the IRAK4 inhibitors; MM.1S cells; read-out: Inhibitory activity (IC50, nM) on tumor cell proliferation, MM.1S
Method: The tumor cells used herein were cultured in a cell culture medium listed in table A1 at 37°C in an incubator with 5% CO2. Prior to experimentation, all cell lines used were correctly identified by STR profiling, and tested negative for mycoplasma contamination using a mycoplasma detection kit through routine screenings. Table A1. Tumor cells and cell culture medium used in the present disclosure
IC50 values of the compounds of the present disclosure (including the compounds in Table 1, and compounds of examples) were measured using the Meilun Cell Counting Kit-8 kit from Dalian Meilun Biotech Co., Ltd. Assay details are as follows: tumor cells were seeded in a 96-well plate at a density listed in Table A2. After 24h, 100 µL of the inoculated cells were treated with 0.5µL of the compounds of the present disclosure (including the compounds in Tables 1 and 2, and compounds of examples) at 10 different successively decreasing concentrations (starting at the highest concentration of 10µM; 5-fold serial dilutions). After the cells were treated with the compounds of the present disclosure for a period of time, the cell viability detection reagent was added to the culture medium for cell viability assessment according to the instructions provided with the CCK-8 kit. […] The growth inhibition of the compounds of the present disclosure on cells was plotted by Prism Graphpad software, and the IC50 values of the compounds of the present disclosure were calculated therefrom. […] Seeding protocol and treatment time for tumor cells

IRAK4 = molecular target: T2, IRAK4 (Homo sapiens, UniProt Q9NWZ3); experiment: Western blot degradation of IRAK4 (hPBMC); assay type: cell-based; conditions: Table D1
T2 construct: evaluate the effects of the compounds of the present disclosure on the expression of target proteins in cells; endogenous in cells; host or cells: hPBMC
T2 sequence (Q9NWZ3 1-460): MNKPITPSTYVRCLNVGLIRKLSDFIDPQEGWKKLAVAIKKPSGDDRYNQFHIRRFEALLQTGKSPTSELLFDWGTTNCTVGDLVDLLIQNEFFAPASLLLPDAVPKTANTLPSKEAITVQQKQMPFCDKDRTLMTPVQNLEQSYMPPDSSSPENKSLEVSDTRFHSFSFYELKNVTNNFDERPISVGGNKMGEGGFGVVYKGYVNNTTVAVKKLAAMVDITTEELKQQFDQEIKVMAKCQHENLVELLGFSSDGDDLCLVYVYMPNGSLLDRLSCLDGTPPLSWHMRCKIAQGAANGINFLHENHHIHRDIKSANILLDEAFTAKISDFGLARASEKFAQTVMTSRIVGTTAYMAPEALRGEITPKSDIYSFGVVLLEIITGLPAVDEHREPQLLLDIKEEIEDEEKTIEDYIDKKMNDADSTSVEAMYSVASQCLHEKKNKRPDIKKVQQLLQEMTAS
Method in brief: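 Quantification by ImageJ densitometry of Western blot bands: DC50 is the fitted concentration halving band intensity relative to DMSO. Percent remaining uses internal-control normalization, and degradation rate is its complement.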

SR = experiment: CCK-8 proliferation, SR; assay type: cell-based, Human; conditions: Homo sapiens; Table B10, compounds designed based on the IRAK4 inhibitors; SR cells; read-out: Inhibitory activity (IC50, nM) on tumor cell proliferation, SR
Method in brief: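 Cells seeded, then after 24 h treated with 10 concentrations (top 10 µM, 5-fold serial dilution) for a line-specific time at 37°C, 5% CO2. Viability read by CCK-8; IC50 fitted from growth-inhibition curves.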

[1] = molecular target: T3, human Cereblon WT GST-tagged protein (Homo sapiens, UniProt Q96SW2); experiment: CRBN binding, HTRF (CEREBLON BINDING kit); conditions: Table II-2, CRBN binding screening, HTRF
T3 construct: purchased CISBIO 64BDCRBNPEH
T3 sequence (Q96SW2 whole entry): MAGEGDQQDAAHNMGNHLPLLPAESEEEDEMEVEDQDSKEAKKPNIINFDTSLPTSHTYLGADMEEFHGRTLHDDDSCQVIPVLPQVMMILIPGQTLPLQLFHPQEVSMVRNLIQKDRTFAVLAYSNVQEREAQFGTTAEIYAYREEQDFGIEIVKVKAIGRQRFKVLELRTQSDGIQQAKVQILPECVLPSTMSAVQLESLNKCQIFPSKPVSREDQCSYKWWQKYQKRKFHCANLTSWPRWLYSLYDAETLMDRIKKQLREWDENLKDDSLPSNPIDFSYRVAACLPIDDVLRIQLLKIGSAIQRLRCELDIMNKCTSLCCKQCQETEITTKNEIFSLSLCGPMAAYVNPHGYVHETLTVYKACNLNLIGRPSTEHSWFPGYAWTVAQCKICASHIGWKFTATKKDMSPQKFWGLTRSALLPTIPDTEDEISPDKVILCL
Method in brief: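 Competitive HTRF: GST-tagged human WT Cereblon mixed with compound, Thalidomide-Re tracer and GST Eu antibody, incubated 3 h at room temperature. Signals read at 620 and 665 nm.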

T1 sequence (Q9HC35+Q9UM73 fused): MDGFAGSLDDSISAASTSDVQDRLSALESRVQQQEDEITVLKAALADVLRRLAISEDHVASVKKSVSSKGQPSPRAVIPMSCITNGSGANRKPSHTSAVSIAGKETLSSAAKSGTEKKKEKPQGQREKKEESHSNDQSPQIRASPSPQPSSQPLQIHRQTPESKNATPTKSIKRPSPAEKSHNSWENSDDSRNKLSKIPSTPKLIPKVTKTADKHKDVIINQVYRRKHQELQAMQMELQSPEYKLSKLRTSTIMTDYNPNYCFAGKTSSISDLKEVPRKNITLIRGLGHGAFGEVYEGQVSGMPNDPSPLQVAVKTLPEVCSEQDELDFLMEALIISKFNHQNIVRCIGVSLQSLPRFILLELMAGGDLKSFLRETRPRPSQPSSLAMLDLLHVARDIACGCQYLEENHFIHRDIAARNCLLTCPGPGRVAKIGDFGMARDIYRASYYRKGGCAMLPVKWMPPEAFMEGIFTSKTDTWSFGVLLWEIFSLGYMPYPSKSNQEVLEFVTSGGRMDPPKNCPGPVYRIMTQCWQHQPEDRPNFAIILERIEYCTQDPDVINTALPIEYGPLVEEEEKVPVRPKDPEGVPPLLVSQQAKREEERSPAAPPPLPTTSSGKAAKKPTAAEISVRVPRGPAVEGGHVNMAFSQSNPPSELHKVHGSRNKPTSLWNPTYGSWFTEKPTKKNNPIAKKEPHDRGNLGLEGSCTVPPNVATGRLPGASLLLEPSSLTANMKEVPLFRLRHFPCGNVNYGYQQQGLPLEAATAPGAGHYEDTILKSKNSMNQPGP
T1 sequence (Q96SW2 whole entry): as the sequence (Q96SW2 whole entry) above
T1 sequence (Q16531 whole entry partner): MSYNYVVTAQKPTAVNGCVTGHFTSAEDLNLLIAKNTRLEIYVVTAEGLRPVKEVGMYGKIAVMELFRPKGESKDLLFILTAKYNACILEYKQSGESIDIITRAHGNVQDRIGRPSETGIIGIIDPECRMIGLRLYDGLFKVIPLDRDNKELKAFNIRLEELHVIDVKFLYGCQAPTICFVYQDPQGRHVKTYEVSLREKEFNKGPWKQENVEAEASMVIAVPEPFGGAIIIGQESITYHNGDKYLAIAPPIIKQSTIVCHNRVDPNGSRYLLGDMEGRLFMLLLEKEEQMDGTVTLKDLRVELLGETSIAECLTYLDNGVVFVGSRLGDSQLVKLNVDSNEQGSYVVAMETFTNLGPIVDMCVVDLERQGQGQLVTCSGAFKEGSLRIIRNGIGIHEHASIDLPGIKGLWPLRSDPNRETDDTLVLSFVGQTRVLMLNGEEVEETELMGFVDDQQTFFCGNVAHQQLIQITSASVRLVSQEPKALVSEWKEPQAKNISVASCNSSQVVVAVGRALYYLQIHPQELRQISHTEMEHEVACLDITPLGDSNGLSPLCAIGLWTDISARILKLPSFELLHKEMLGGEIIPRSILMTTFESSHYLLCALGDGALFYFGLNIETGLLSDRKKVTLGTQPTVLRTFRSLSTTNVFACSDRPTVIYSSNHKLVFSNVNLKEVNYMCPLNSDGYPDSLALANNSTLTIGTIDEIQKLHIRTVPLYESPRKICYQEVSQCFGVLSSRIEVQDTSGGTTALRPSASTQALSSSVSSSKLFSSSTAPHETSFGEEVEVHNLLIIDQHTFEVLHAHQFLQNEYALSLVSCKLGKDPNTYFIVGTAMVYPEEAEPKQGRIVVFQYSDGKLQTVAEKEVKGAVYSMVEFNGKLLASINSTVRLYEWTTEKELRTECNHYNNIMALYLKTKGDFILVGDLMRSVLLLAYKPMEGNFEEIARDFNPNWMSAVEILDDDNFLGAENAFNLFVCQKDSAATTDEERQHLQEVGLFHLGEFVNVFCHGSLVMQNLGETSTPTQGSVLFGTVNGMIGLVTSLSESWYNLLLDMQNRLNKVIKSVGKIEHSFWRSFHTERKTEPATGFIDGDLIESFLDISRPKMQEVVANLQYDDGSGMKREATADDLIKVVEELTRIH

Row | SMILES | Degradation of substrate protein ALK (substrate protein remaining %) (ALK) | IC50 (MM.1S) [nM] | Degradation of substrate protein IRAK4 (substrate protein remaining %) (IRAK4) | other results
1 | CCc1cc2c(cc1N1CCC(N3CCN(Cc4ncc(N5CCC(=O)NC5=O)cc4F)CC3)CC1)C(C)(C)c1[nH]c3cc(C#N)ccc3c1C2=O [GT-07924, 8-(4-(4-((5-(2,4-dioxotetrahydropyrimidin-1(2H)-yl)-3-fluoropyridin-2-yl)methyl)piperazin-1-yl)piperidin-1-yl)-9-ethyl-6,6-dimethyl-11-oxo-6,11-dihydro-5H-benzo[b]carbazole-3-carbonitrile] | A (A is defined as 0% ≤ substrate protein remaining % ≤ 80%) | – | – | –
2 | Cc1cc(Nc2ncc(Cl)c(Nc3ccccc3S(=O)(=O)C(C)C)n2)c(OC(C)C)cc1C1CCN(Cc2cnc(N3CCC(=O)NC3=O)cn2)CC1 [GT-07758, 1-(5-((4-(4-((5-chloro-4-((2-(isopropylsulfonyl)phenyl)amino)pyrimidin-2-yl)amino)-5-isopropoxy-2-methylphenyl)piperidin-1-yl)methyl)pyrazin-2-yl)dihydropyrimidine-2,4(1H,3H)-dione] | A (A is defined as 0% ≤ substrate protein remaining % ≤ 80%) | – | – | –
3 | O=C1CCN(c2ccc(CN3CCC(n4cc(NC(=O)c5coc(-c6ccnc(NCC7CC7)c6)n5)c(C(F)F)n4)CC3)cc2)C(=O)N1 [GT-04956, 2-(2-((cyclopropylmethyl)amino)pyridin-4-yl)-N-(3-(difluoromethyl)-1-(1-(4-(2,4-dioxotetrahydropyrimidin-1(2H)-yl)benzyl)piperidin-4-yl)-1H-pyrazol-4-yl)oxazole-4-carboxamide] | – | 100 to 500 | A (A is defined as 0% ≤ substrate protein remaining % ≤ 80%) | –
4 | CCc1cc2c(cc1N1CCN(Cc3cc(C4CCC(=O)NC4=O)cnc3F)CC1)C(C)(C)c1[nH]c3cc(C#N)ccc3c1C2=O (stereo not drawn) [GT-07836, 8-(4-((5-(2,6-dioxopiperidin-3-yl)-2-fluoropyridin-3-yl)methyl)piperazin-1-yl)-9-ethyl-6,6-dimethyl-11-oxo-6,11-dihydro-5H-benzo[b]carbazole-3-carbonitrile] | A (A is defined as 0% ≤ substrate protein remaining % ≤ 80%) | – | – | –
5 | CCc1cc2c(cc1N1CCN(Cc3cc(N4CCC(=O)NC4=O)ncc3F)CC1)C(C)(C)c1[nH]c3cc(C#N)ccc3c1C2=O [GT-07833, 8-(4-((2-(2,4-dioxotetrahydropyrimidin-1(2H)-yl)-5-fluoropyridin-4-yl)methyl)piperazin-1-yl)-9-ethyl-6,6-dimethyl-11-oxo-6,11-dihydro-5H-benzo[b]carbazole-3-carbonitrile] | A (A is defined as 0% ≤ substrate protein remaining % ≤ 80%) | – | – | –
6 | O=C1CCC(Nc2cccc(CN3CCN(Cc4ccc5c(c4)nc(NC(=O)c4cccc(C(F)(F)F)c4)n5C4CCC(CO)CC4)CC3)c2)C(=O)N1 (stereo not drawn) [GT-04976, N-(5-((4-(3-((2,6-dioxopiperidin-3-yl)amino)benzyl)piperazin-1-yl)methyl)-1-((1s,4s)-4-(hydroxymethyl)cyclohexyl) -1H-benzo[d]imidazol-2-yl)-3-(trifluoromethyl)benzamide] | – | 100 to 500 | A (A is defined as 0% ≤ substrate protein remaining % ≤ 80%) | IC50 (SR): 100 to 500 nM
7 | CCc1cc2c(cc1N1CCC(N3CCN(Cc4cnc(N5CCC(=O)NC5=O)cn4)CC3)CC1)C(C)(C)c1[nH]c3cc(C#N)ccc3c1C2=O [GT-07756, 8-(4-(4-((5-(2,4-dioxotetrahydropyrimidin-1(2H)-yl)pyrazin-2-yl)methyl)piperazin-1-yl)piperidin-1-yl)-9-ethyl-6,6-dimethyl-11-oxo-6,11-dihydro-5H-benzo[b]carbazole-3-carbonitrile] | A (A is defined as 0% ≤ substrate protein remaining % ≤ 80%) | – | – | –
8 | O=C1CCN(c2ccc(CN3CCC(n4cc(NC(=O)c5coc(-c6ccnc(NCC7CC7)c6)n5)c(C(F)F)n4)CC3)nc2)C(=O)N1 [GT-04958, 2-(2-((cyclopropylmethyl)amino)pyridin-4-yl)-N-(3-(difluoromethyl)-1-(1-((5-(2,4-dioxotetrahydropyrimidin-1(2H)-yl)pyridin-2-yl)methyl)piperidin-4-yl)-1H-pyrazol-4-yl)oxazole-4-carboxamide] | – | 100 to 500 | A (A is defined as 0% ≤ substrate protein remaining % ≤ 80%) | –
9 | O=C1CCN(c2cccc(CN3CCN(Cc4ccc5c(c4)nc(NC(=O)c4cccc(C(F)(F)F)c4)n5[C@H]4CC[C@@H](CO)CC4)CC3)c2)C(=O)N1 [GT-04977, N-(5-((4-(3-(2,4-dioxotetrahydropyrimidin-1(2H)-yl)benzyl)piperazin-1-yl)methyl)-1-((1s,4s)-4-(hydroxymethyl)cyclohexyl) -1H-benzo[d]imidazol-2-yl)-3-(trifluoromethyl)benzamide] | – | 100 to 500 | A (A is defined as 0% ≤ substrate protein remaining % ≤ 80%) | IC50 (SR): 100 to 500 nM
10 | COc1cc2nn(C3CCN(Cc4cncc(N5CCC(=O)NC5=O)c4)CC3)cc2cc1NC(=O)c1cccc(C(F)(F)F)n1 [GT-07533, N-(2-(1-((5-(2,4-dioxotetrahydropyrimidin-1(2H)-yl)pyridin-3-yl)methyl)piperidin-4-yl)-6-methoxy-2H-indazol-5-yl)-6-(trifluoromethyl)picolinamide] | – | – | A (A is defined as 0% ≤ substrate protein remaining % ≤ 80%) | inhibition at 0.5 µM ([1]; at 0.5µM, read-out: Inhibition rate (%) at 0.5µM): 10 to 20%; inhibition at 2 µM ([1]; at 2 µM, read-out: Inhibition rate (%) at 2 µM): 53 to 60%
11 | CC(C)(O)c1cc2nc(C3CCN(Cc4ccc(C5CCC(=O)NC5=O)cn4)CC3)sc2cc1NC(=O)c1cccc(C(F)(F)F)n1 (stereo not drawn) [GT-07623, N-(2-(1-((5-(2,6-dioxopiperidin-3-yl)pyridin-2-yl)methyl)piperidin-4-yl)-5-(2-hydroxypropan-2-yl)benzo[d]thiazol-6-yl)-6-(trifluoromethyl)picolinamide] | – | – | A (A is defined as 0% ≤ substrate protein remaining % ≤ 80%) | Inhibition rate (%) at 0.5µM ([1]; at 0.5µM): a2 (20% < a2 ≤ 30%); Inhibition rate (%) at 2 µM ([1]; at 2 µM): a6 (60% < a6 ≤ 80%)

Reference: patent EP4678638A1, “NEW E3 UBIQUITIN LIGASE LIGAND, PROTEIN DEGRADATION AGENT AND USE THEREOF” (priority 2023, dated 2024)
